# According to ChEMBL document CHEMBL5113409, “Design and synthesis of proteolysis targeting chimeras (PROTACs) as an EGFR degrader based on CO-1686” (Eur J Med Chem, 2022):
# Calls of active or inactive are those of the source. The rule behind the calls is not given here.
# Key:
# [1] = test system: Protein cereblon/Epidermal growth factor receptor (Homo sapiens), P00533+Q96SW2 [L858R,T790M]; assay: Protac activity at CRBN/EGFR L858R/T790M mutant in human NCI-H1975 cells assessed as L858R/T790M mutant degradation at 0.3 uM incubated up to 36 hrs by Western blot analysis; assay type: cell-based; settings: TDE = time-dependent effect
# A549 = assay: Anti-proliferative activity against human A549 cells assessed as reduction in cell proliferation incubated for 72 hrs by MTT assay; assay type: functional, cell-based; settings: A549, 72 h
# NCI-H1975 [2] = assay: Anti-proliferative activity against human NCI-H1975 cells assessed as reduction in cell proliferation incubated for 72 hrs by MTT assay; assay type: functional, cell-based; settings: NCI-H1975, 72 h
# NCI-H1975 [3] = assay: Induction of apoptosis in human NCI-H1975 cells assessed as early apoptosis cells level at 0.5 uM incubated for 48 hrs by Annexin-V/propidium iodide staining based biparametric cytofluorometric assay (reference value: 2.26%); assay type: functional
# NCI-H1975 [4] = assay: Induction of apoptosis in human NCI-H1975 cells assessed as viable cells level at 0.5 uM incubated for 48 hrs by Annexin-V/propidium iodide staining based biparametric cytofluorometric assay (reference value: 93.9%); assay type: functional
# NCI-H1975 [5] = assay: Induction of apoptosis in human NCI-H1975 cells assessed as early apoptosis cells level at 1 uM incubated for 48 hrs by Annexin-V/propidium iodide staining based biparametric cytofluorometric assay (reference value: 2.26%); assay type: functional
# NCI-H1975 [6] = assay: Induction of cell cycle arrest in human NCI-H1975 cells assessed as accumulation at G0/G1 phase at 0.25 uM incubated for 48 hrs by propidium iodide staining based flow cytometry (reference value: 59.18%); assay type: functional
# NCI-H1975 [7] = assay: Induction of apoptosis in human NCI-H1975 cells assessed as late apoptosis cells level at 0.25 uM incubated for 48 hrs by Annexin-V/propidium iodide staining based biparametric cytofluorometric assay (reference value: 2.46%); assay type: functional
# Homo sapiens = species on record: Homo sapiens; assay: Selectivity index, ratio of IC50 for wild type EGFR (unknown origin) to IC50 for Protein cereblon/Epidermal growth factor receptor L858R/T790M mutant
# NCI-H1975 [8] = assay: Induction of cell cycle arrest in human NCI-H1975 cells assessed as accumulation at S phase at 0.25 uM incubated for 48 hrs by propidium iodide staining based flow cytometry (reference value: 37.13%); assay type: functional
# NCI-H1975 [9] = assay: Induction of cell cycle arrest in human NCI-H1975 cells assessed as accumulation at G2/M phase at 0.25 uM incubated for 48 hrs by propidium iodide staining based flow cytometry (reference value: 3.68%); assay type: functional
# [10] = biological target: Epidermal growth factor receptor (Homo sapiens, UniProt P00533); assay: Inhibition of wild type EGFR (unknown origin) incubated for 10 mins by HTRF KinEASE-TK assay
# [11] = test system: Protein cereblon/Epidermal growth factor receptor (Homo sapiens), P00533+Q96SW2 [L858R,T790M]; assay: (§1) Protac activity at CRBN/EGFR L858R/T790M mutant in human NCI-H1975 cells assessed as L858R/T790M mutant degradation incubated for 48 hrs by Western blot analysis; assay type: cell-based; settings: DDE = dose-dependent effect
# [12] = biological target: Protein cereblon/Epidermal growth factor receptor (Homo sapiens, UniProt P00533+Q96SW2, T790M/L858R); assay: as §1; assay type: cell-based
# NCI-H1975 [13] = assay: Induction of cell cycle arrest in human NCI-H1975 cells assessed as accumulation at G0/G1 phase at 0.5 uM incubated for 48 hrs by propidium iodide staining based flow cytometry (reference value: 59.18%); assay type: functional
# NCI-H1975 [14] = assay: Induction of apoptosis in human NCI-H1975 cells assessed as necrosis cells level at 1 uM incubated for 48 hrs by Annexin-V/propidium iodide staining based biparametric cytofluorometric assay (reference value: 2.46%); assay type: functional
# [15] = test system: Protein cereblon/Epidermal growth factor receptor (Homo sapiens), P00533+Q96SW2 [L858R,T790M]; assay: Protac activity at CRBN/EGFR L858R/T790M mutant in human NCI-H1975 cells assessed as L858R/T790M mutant degradation at 3 uM incubated for 48 hrs by Western blot analysis; assay type: cell-based
# NCI-H1975 [16] = assay: Induction of apoptosis in human NCI-H1975 cells assessed as necrosis cells level at 0.5 uM incubated for 48 hrs by Annexin-V/propidium iodide staining based biparametric cytofluorometric assay (reference value: 2.46%); assay type: functional
# NCI-H1975 [17] = assay: Induction of cell cycle arrest in human NCI-H1975 cells assessed as accumulation at S phase at 0.5 uM incubated for 48 hrs by propidium iodide staining based flow cytometry (reference value: 37.13%); assay type: functional
# PC-9 = assay: Anti-proliferative activity against human PC-9 cells assessed as reduction in cell proliferation incubated for 72 hrs by MTT assay; assay type: functional, cell-based; settings: PC-9, 72 h
# NCI-H1975 [18] = assay: Induction of apoptosis in human NCI-H1975 cells assessed as early apoptosis cells level at 0.25 uM incubated for 48 hrs by Annexin-V/propidium iodide staining based biparametric cytofluorometric assay (reference value: 2.26%); assay type: functional
# NCI-H1975 [19] = assay: Induction of apoptosis in human NCI-H1975 cells assessed as late apoptosis cells level at 0.5 uM incubated for 48 hrs by Annexin-V/propidium iodide staining based biparametric cytofluorometric assay (reference value: 2.46%); assay type: functional
# NCI-H1975 [20] = assay: Induction of cell cycle arrest in human NCI-H1975 cells assessed as accumulation at G2/M phase at 0.5 uM incubated for 48 hrs by propidium iodide staining based flow cytometry (reference value: 3.68%); assay type: functional
# NCI-H1975 [21] = assay: Induction of apoptosis in human NCI-H1975 cells assessed as late apoptosis cells level at 1 uM incubated for 48 hrs by Annexin-V/propidium iodide staining based biparametric cytofluorometric assay (reference value: 2.46%); assay type: functional
# NCI-H1975 [22] = assay: Induction of apoptosis in human NCI-H1975 cells incubated for 48 hrs by Annexin-V/propidium iodide staining based biparametric cytofluorometric assay; assay type: functional, cell-based; settings: DDE = dose-dependent effect
# [23] = biological target: Epidermal growth factor receptor (Homo sapiens, UniProt P00533, L858R/T790M); assay: Inhibition of EGFR L858R/T790M mutant (unknown origin) incubated for 35 mins by HTRF KinEASE-TK assay
# NCI-H1975 [24] = assay: Induction of cell cycle arrest in human NCI-H1975 cells assessed as accumulation at G2/M phase at 1 uM incubated for 48 hrs by propidium iodide staining based flow cytometry (reference value: 3.68%); assay type: functional
# [25] = test system: Protein cereblon/Epidermal growth factor receptor (Homo sapiens), P00533+Q96SW2 [L858R,T790M]; assay: Protac activity at CRBN/EGFR L858R/T790M mutant in human NCI-H1975 cells assessed as L858R/T790M mutant degradation incubated for 48 hrs by Western blot analysis relative to untreated control; assay type: cell-based
# NCI-H1975 [26] = assay: Induction of cell cycle arrest in human NCI-H1975 cells assessed as accumulation at S phase at 1 uM incubated for 48 hrs by propidium iodide staining based flow cytometry (reference value: 37.13%); assay type: functional
# NCI-H1975 [27] = assay: Induction of apoptosis in human NCI-H1975 cells assessed as viable cells level at 0.25 uM incubated for 48 hrs by Annexin-V/propidium iodide staining based biparametric cytofluorometric assay (reference value: 93.9%); assay type: functional
# NCI-H1975 [28] = assay: Induction of cell cycle arrest in human NCI-H1975 cells assessed as accumulation at G0/G1 phase at 1 uM incubated for 48 hrs by propidium iodide staining based flow cytometry (reference value: 59.18%); assay type: functional
# NCI-H1975 [29] = assay: Induction of apoptosis in human NCI-H1975 cells assessed as viable cells level at 1 uM incubated for 48 hrs by Annexin-V/propidium iodide staining based biparametric cytofluorometric assay (reference value: 93.9%); assay type: functional
structure (smiles),measurement,setting,value
C=CC(=O)Nc1cccc(Nc2nc(Nc3ccc(N4CCN(CC(=O)NCCNc5cccc6c5C(=O)N(C5CCC(=O)NC5=O)C6=O)CC4)cc3OC)ncc2C(F)(F)F)c1 (configuration not stated),Activity,[1],Tde
same,IC50,A549,> 100000 nM
same,IC50,NCI-H1975 [2],240 nM
same,Activity,NCI-H1975 [3],6.16%
same,Activity,NCI-H1975 [4],73.3%
same,Activity,NCI-H1975 [5],6.63%
same,Activity,NCI-H1975 [6],72.1%
same,Activity,NCI-H1975 [7],6.07%
same,Ratio IC50,Homo sapiens,19
same,Activity,NCI-H1975 [8],23.89%
same,Activity,NCI-H1975 [9],4.01%
same,IC50,[10],839 nM
same,Activity,[11],Dde
same,DC50,[12],356 nM
same,Activity,NCI-H1975 [13],73.71%
same,Activity,NCI-H1975 [14],4.71%
same,Activity,[15],Active
same,Activity,NCI-H1975 [16],2.22%
same,Activity,NCI-H1975 [17],22.57%
same,IC50,PC-9,750 nM
same,Activity,NCI-H1975 [18],2.78%
same,Activity,NCI-H1975 [19],18.3%
same,Activity,NCI-H1975 [20],3.72%
same,Activity,NCI-H1975 [21],39.9%
same,Activity,NCI-H1975 [22],Dde
same,IC50,[23],43.1 nM
same,Activity,NCI-H1975 [24],4.8%
same,Emax,[25],83%
same,Activity,NCI-H1975 [26],17.39%
same,Activity,NCI-H1975 [27],89.7%
same,Activity,NCI-H1975 [28],77.8%
same,Activity,NCI-H1975 [29],58%
